Experimental data from US10722501B2 (BAYER AKTIENGESELLSCHAFT, priority 2016, dated 2020).

Target: T1, recombinant full-length human prolyl endopeptidase (PREP) (Homo sapiens, UniProt P48147)
T1 construct: To recombinant full-length human prolyl endopeptidase (PREP, R&D-Systems, 4308-SE); purchased R&D-Systems 4308-SE
T1 sequence (P48147 1-710): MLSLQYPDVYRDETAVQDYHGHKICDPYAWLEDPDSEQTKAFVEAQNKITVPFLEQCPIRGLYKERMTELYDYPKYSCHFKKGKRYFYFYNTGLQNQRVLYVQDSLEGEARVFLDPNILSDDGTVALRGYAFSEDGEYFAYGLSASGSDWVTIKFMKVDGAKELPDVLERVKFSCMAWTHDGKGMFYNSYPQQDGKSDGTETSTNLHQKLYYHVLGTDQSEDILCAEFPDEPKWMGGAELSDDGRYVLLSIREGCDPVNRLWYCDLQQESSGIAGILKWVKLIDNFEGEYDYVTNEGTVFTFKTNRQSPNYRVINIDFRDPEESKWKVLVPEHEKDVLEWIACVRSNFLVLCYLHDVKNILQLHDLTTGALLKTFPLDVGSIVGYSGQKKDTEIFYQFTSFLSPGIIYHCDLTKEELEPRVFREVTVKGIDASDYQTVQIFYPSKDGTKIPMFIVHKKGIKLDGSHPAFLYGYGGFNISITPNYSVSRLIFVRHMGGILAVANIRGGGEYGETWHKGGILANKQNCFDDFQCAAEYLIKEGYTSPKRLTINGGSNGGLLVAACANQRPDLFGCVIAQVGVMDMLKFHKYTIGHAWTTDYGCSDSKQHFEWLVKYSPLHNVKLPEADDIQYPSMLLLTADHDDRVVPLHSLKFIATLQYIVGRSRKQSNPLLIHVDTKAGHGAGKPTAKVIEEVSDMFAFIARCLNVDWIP
Assay: Biochemical human prolyl endopeptidase (PREP) assay with fluorescently labelled substrate
Settings: substrate Z-Gly-Pro-AMC 50 μM, 32° C., 60 min; some as mean values from multiple independent determinations
Summary of the method: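 Initial rates of fluorescence increase from 50 μM Z-Gly-Pro-AMC cleavage (ex 360/em 465 nm, 60 min, 32° C) give percent PREP activity versus no-compound control, and IC50 is interpolated. Enzyme used at 0.4 nM (final, example) in Tris pH 7.5 with EDTA, GSH, BSA and Brij-35; compounds span 1 nM to 30 μM.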

Row | IC50 [µM] | SMILES
1 | 0.00026 | Cc1ccc(Cn2nc3n(c2=O)[C@H](C(=O)N2CCC(C)(F)C2)CCC3)cc1 (mixture of isomers) [Example 151, (5S)-5-{[(3RS)-3-Fluoro-3-methylpyrrolidin-1-yl]carbonyl}-2-(4-methylbenzyl)-5,6,7,8-tetrahydro[1,2,4]triazolo[4,3-a]pyridin-3(2H)-one]
2 | 0.038 | Cc1ccc(Cn2nc3n(c2=O)[C@H](C(=O)N2CCC(O)(C(F)(F)F)C2)CCC3)cc1 (mixture of isomers) [Example 152, (5S)-5-{[(3RS)-3-Hydroxy-3-(trifluoromethyl)pyrrolidin-1-yl]carbonyl}-2-(4-methylbenzyl)-5,6,7,8-tetrahydro[1,2,4]triazolo[4,3-a]pyridin-3(2H)-one]
3 | 0.036 | O=C(C1CCCc2nn(Cc3ccc(OCC(F)(F)F)nc3)c(=O)n21)N1CCCC1 (racemic) [Example 153, (5RS)-5-(Pyrrolidin-1-ylcarbonyl)-2-{[6-(2,2,2-trifluoroethoxy)pyridin-3-yl]methyl}-5,6,7,8-tetrahydro[1,2,4]triazolo[4,3-a]pyridin-3(2H)-one]
4 | 0.79 | O=C(O)c1ccc(Cn2nc3n(c2=O)C(C(=O)N2CCCC2)CCC3)cc1 (racemic) [Example 154, 4-{[(5RS)-3-Oxo-5-(pyrrolidin-1-ylcarbonyl)-5,6,7,8-tetrahydro[1,2,4]triazolo[4,3-a]pyridin-2(3H)-yl]methyl}benzoic acid]
5 | 0.21 | CNC(=O)c1ccc(Cn2nc3n(c2=O)C(C(=O)N2CCCC2)CCC3)cc1 (racemic) [Example 155, N-Methyl-4-{[(5RS)-3-oxo-5-(pyrrolidin-1-ylcarbonyl)-5,6,7,8-tetrahydro[1,2,4]triazolo[4,3-a]pyridin-2(3H)-yl]methyl}benzamide]
6 | 0.069 | CN(C)C(=O)c1ccc(Cn2nc3n(c2=O)C(C(=O)N2CCCC2)CCC3)cc1 (racemic) [Example 156, N,N-Dimethyl-4-{[(5RS)-3-oxo-5-(pyrrolidin-1-ylcarbonyl)-5,6,7,8-tetrahydro[1,2,4]triazolo[4,3-a]pyridin-2(3H)-yl]methyl}benzamide]
7 | 0.0089 | Cc1ccc(Cn2nc3n(c2=O)C(C(=O)N2CC=CCC2)CCC3)cc1 (racemic) [Example 158, (5RS)-5-(3,6-Dihydropyridin-1 (2H)-ylcarbonyl)-2-(4-methylbenzyl)-5,6,7,8-tetrahydro[1,2,4]triazolo[4,3-a]pyridin-3(2H)-one]
8 | 0.016 | Cc1ccc(Cn2nc3n(c2=O)C(C(=O)N2CCOCC2)CCC3)cc1 (racemic) [Example 159, (5RS)-2-(4-Methylbenzyl)-5-(morpholin-4-ylcarbonyl)-5,6,7,8-tetrahydro[1,2,4]triazolo[4,3-a]pyridin-3(2H)-one]
9 | 0.032 | Cc1ccc(Cn2nc3n(c2=O)C(C(=O)N2CCC(C)CC2)CCC3)cc1 (racemic) [Example 160, (5RS)-2-(4-Methylbenzyl)-5-[(4-methylpiperidin-1-yl)carbonyl]-5,6,7,8-tetrahydro[1,2,4]triazolo[4,3-a]pyridin-3(2H)-one]
10 | 0.037 | Cc1ccc(Cn2nc3n(c2=O)C(C(=O)N2CCCCC2)CCC3)cc1 (racemic) [Example 161, (5RS)-2-(4-Methylbenzyl)-5-(piperidin-1-ylcarbonyl)-5,6,7,8-tetrahydro[1,2,4]triazolo[4,3-a]pyridin-3(2H)-one]
11 | 0.13 | Cc1ccc(Cn2nc3n(c2=O)C(C(=O)N2CCCC2C)CCC3)cc1 (racemic) [Example 162, (5RS)-2-(4-Methylbenzyl)-5-[2(RS)-(2-methylpyrrolidin-1-yl)carbonyl]-5,6,7,8-tetrahydro[1,2,4]triazolo[4,3-a]pyridin-3(2H)-one]
12 | 0.022 | O=C(C1CCc2nn(Cc3ccc(Cl)nc3)c(=O)n21)N1CCC(F)(F)C1 (racemic) [Example 166, (5RS)-2-[(6-Chloropyridin-3-yl)methyl]-5-[(3,3-difluoropyrrolidin-1-yl)carbonyl]-2,5,6,7-tetrahydro-3H-pyrrolo[2,1-c][1,2,4]triazol-3-one]
13 | 0.0565 | O=C(C1CCc2nn(Cc3ccc(C(F)(F)F)nc3)c(=O)n21)N1CCC(F)(F)C1 (racemic) [Example 167, (5RS)-5-[(3,3-Difluoropyrrolidin-1-yl)carbonyl]-2-{[6-(trifluoromethyl)pyridin-3-yl]methyl}-2,5,6,7-tetrahydro-3H-pyrrolo[2,1-c][1,2,4]triazol-3-one]
14 | 0.0041 | O=C(C1CCc2nn(Cc3ccc(F)c(Cl)c3)c(=O)n21)N1CCC(F)(F)C1 (racemic) [Example 168, (5RS)-2-(3-Chloro-4-fluorobenzyl)-5-[(3,3-difluoropyrrolidin-1-yl)carbonyl]-2,5,6,7-tetrahydro-3H-pyrrolo[2,1-c][1,2,4]triazol-3-one]
15 | 0.0315 | O=C(C1CCc2nn(Cc3ccc(Cl)nc3)c(=O)n21)N1CC(F)C1 (racemic) [Example 169, (5RS)-2-[(6-Chloropyridin-3-yl)methyl]-5-[(3-fluoroazetidin-1-yl)carbonyl]-2,5,6,7-tetrahydro-3H-pyrrolo[2,1-c][1,2,4]triazol-3-one]
16 | 0.09 | O=C(C1CCc2nn(Cc3ccc(C(F)(F)F)nc3)c(=O)n21)N1CC(F)C1 (racemic) [Example 170, (5RS)-5-[(3-Fluoroazetidin-1-yl)carbonyl]-2-{[6-(trifluoromethyl)pyridin-3-yl]methyl}-2,5,6,7-tetrahydro-3H-pyrrolo[2,1-c][1,2,4]triazol-3-one]
17 | 0.0063 | O=C(C1CCc2nn(Cc3ccc(F)c(Cl)c3)c(=O)n21)N1CC(F)C1 (racemic) [Example 171, (5RS)-2-(3-Chloro-4-fluorobenzyl)-5-[(3-fluoroazetidin-1-yl)carbonyl]-2,5,6,7-tetrahydro-3H-pyrrolo[2,1-c][1,2,4]triazol-3-one]
18 | 0.0063 | O=C(C1CCc2nn(Cc3ccc(Cl)nc3)c(=O)n21)N1C[C@@H](F)[C@@H](F)C1 (mixture of isomers) [Example 172, (5RS)-2-[(6-Chloropyridin-3-yl)methyl]-5-{[(3R,4S)-3,4-difluoropyrrolidin-1-yl]carbonyl}-2,5,6,7-tetrahydro-3H-pyrrolo[2,1-c][1,2,4]triazol-3-one]
19 | 0.00585 | O=C(C1CCc2nn(Cc3ccc(C(F)(F)F)nc3)c(=O)n21)N1C[C@@H](F)[C@@H](F)C1 (mixture of isomers) [Example 173, (5RS)-5-{[(3R,4S)-3,4-Difluoropyrrolidin-1-yl]carbonyl}-2-{[6-(trifluoromethyl)pyridin-3-yl]methyl}-2,5,6,7-tetrahydro-3H-pyrrolo[2,1-c][1,2,4]triazol-3-one]
20 | 0.00115 | O=C(C1CCc2nn(Cc3ccc(F)c(Cl)c3)c(=O)n21)N1C[C@@H](F)[C@@H](F)C1 (mixture of isomers) [Example 174, (5RS)-2-(3-Chloro-4-fluorobenzyl)-5-{[(3R,4S)-3,4-difluoropyrrolidin-1-yl)carbonyl]-2,5,6,7-tetrahydro-3H-pyrrolo[2,1-c][1,2,4]triazol-3-one]
21 | 0.007 | O=C(C1CCc2nn(Cc3ccnc(C(F)(F)F)c3F)c(=O)n21)N1C[C@@H](F)[C@@H](F)C1 (mixture of isomers) [Example 175, (5RS)-5-{[(3R,4S)-3,4-Difluoropyrrolidin-1-yl]carbonyl}-2-{[3-fluoro-2-(trifluoromethyl)pyridin-4-yl]methyl}-2,5,6,7-tetrahydro-3H-pyrrolo[2,1-c][1,2,4]triazol-3-one]
22 | 0.0248 | O=C(C1CCc2nn(Cc3ccnc(C(F)(F)F)c3F)c(=O)n21)N1CCC(F)(F)C1 (racemic) [Example 181, (5RS)-5-[(3,3-Difluoropyrrolidin-1-yl)carbonyl]-2-{[3-fluoro-2-(trifluoromethyl)pyridin-4-yl]methyl}-2,5,6,7-tetrahydro-3H-pyrrolo[2,1-c][1,2,4]triazol-3-one]
23 | 0.0375 | O=C(C1CCc2nn(Cc3ccnc(C(F)(F)F)c3F)c(=O)n21)N1CC(F)C1 (racemic) [Example 182, (5RS)-5-[(3-Fluoroazetidin-1-yl)carbonyl]-2-{[3-fluoro-2-(trifluoromethyl)pyridin-4-yl]methyl}-2,5,6,7-tetrahydro-3H-pyrrolo[2,1-c][1,2,4]triazol-3-one]
24 | 0.01 | O=C([C@@H]1CCCc2nn(Cc3ccnc(C(F)(F)F)c3F)c(=O)n21)N1CCC2CC21 (mixture of isomers) [Example 205, (5S)-5-[(1 RS,5SR)-2-Azabicyclo[3.1.0]hex-2-ylcarbonyl]-2-{[3-fluoro-2-(trifluoromethyl)pyridin-4-yl]methyl}-5,6,7,8-tetrahydro[1,2,4]triazolo[4,3-a]pyridin-3(2H)-one]
25 | 0.0015 | CC1CCC(C(=O)N2CC[C@H](F)C2)n2c1nn(Cc1ccc(C(F)(F)F)nc1)c2=O (mixture of isomers) [Example 220, (5RS,8RS)-5-{[(3S)-3-Fluoropyrrolidin-1-yl]carbonyl}-8-methyl-2-{[6-(trifluoromethyl)pyridin-3-yl]methyl}-5,6,7,8-tetrahydro[1,2,4]triazolo[4,3-a]pyridin-3(2H)-one]
